Source: patent US20030073832A1, “Novel aminophenyl ketone derivatives” (priority 2001, published 2003)

How the values were obtained:
IL-1β = assay: Inhibition of IL-1β secretion from LPS stimulated peripheral blood mononuclear cells; format: cell-based; conditions: PBMC; LPS stimulated human peripheral blood mononuclear cells, 18 hours, ELISA; read-out: The median inhibition concentration (IC50, nM) of IL-1β
Protocol: (§1) To study the effect of compounds of the present invention in vitro the inhibition of the IL-1β and TNF-α secretion was measured using the following procedure:
(§2) Cytokine production was measured in the media from lipopolysaccharide (LPS) stimulated peripheral blood mononuclear cells. The mononuclear cells were isolated from human peripheral blood by Lymphoprep® (Nycomed, Norway) fractionation and suspended in RPMI 1640 (growth medium) with foetal calf serum (FCS, 2%), at a concentration of 5×10^5 cells/ml. The cells were incubated in 24-well tissue culture plates in 1 ml aliquots. Test compounds were dissolved in dimethylsulfoxide (DMSO, 10 mM) and were diluted with the medium. Compounds were added to the cells for 30 minutes, then LPS ([…] final concentration) was added. The plates were incubated for 18 hours, and the concentration of IL-1β and TNF-α in the medium was determined by enzyme-linked immunosorbent assays. The median inhibitory concentrations (IC50) of the compounds were calculated.

TNF-α = assay: Inhibition of TNF-α secretion from LPS stimulated peripheral blood mononuclear cells; format: cell-based; conditions: PBMC; LPS stimulated human peripheral blood mononuclear cells, 18 hours, ELISA; read-out: The median inhibition concentration (IC50, nM) of TNF-α
Protocol: as §1, §2

PMN-superoxide = assay: Inhibition of PMN superoxide secretion (ferricytochrome C reduction); format: cell-based; conditions: human PMN granulocytes primed with TNF-α, stimulated with fMLP; read-out: The median inhibition concentration (IC50, nM) of PMN-superoxide
Protocol: The compounds of the present invention also show similar activities in the ability to inhibit PMN (polymorphonuclear) superoxide secretion which is also indicative of potentially useful anti-inflammatory drugs. The compounds were tested using the following procedure:
Human polymorphonuclear (PMN) granulocytes were isolated from human blood by dextran sedimentation, Lymphoprep® fractionation and hypotonic lysis of contaminating erythrocytes.
Superoxide anion generation was measured as the superoxide dismutase inhibitable reduction of ferricytochrome C (Madhu, S.B. et al, Inflammation, 16, 241, (1992)). The cells were suspended in Hanks' balanced salt solution, and incubated for 10 minutes at 37° C. with test compounds. The cells were primed by the addition of TNF-α (3 ng/ml final concentration) for 10 minutes, and then ferricytochrome C, (final concentration 750 μg/ml), bovine serum albumin (BSA, final concentration 1 mg/ml) and formyl-methionyl-leucyl-phenylalanine (fMLP, final concentration 10^−7 M) were added for 3 minutes. The cells were chilled on ice, and were spun down. The optical densities in the cell-free supernatant was measured in a spectrophotometer. The median inhibitory concentration (IC50) of the compounds was calculated.

p38α MAP kinase = molecular target: T1, p38α MAP kinase (Homo sapiens, UniProt Q16539); assay: p38α MAP kinase assay; format: biochemical; conditions: immunoprecipitated activated FLAG-p38α from COS-1 cells, GST-ATF-2 substrate; read-out: p38 MAP kinase IC50
T1 construct: made in house; host or cells: COS-1 cells (transient co-transfection, anti-FLAG immunoprecipitation)
T1 sequence (Q16539 whole entry): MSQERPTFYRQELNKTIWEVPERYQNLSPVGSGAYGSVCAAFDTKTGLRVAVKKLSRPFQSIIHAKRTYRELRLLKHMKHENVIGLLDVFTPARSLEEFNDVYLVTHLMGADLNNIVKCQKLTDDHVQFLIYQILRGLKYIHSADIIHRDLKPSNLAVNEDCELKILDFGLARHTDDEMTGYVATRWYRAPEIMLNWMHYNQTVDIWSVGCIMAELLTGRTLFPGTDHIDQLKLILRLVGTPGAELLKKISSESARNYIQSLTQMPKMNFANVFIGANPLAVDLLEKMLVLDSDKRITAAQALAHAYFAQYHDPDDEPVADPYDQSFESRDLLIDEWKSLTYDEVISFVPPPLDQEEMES
Protocol: COS-1 cells (derived from African green monkey kidney fibroblast-like cell containing wild-type T antigen under control of the SV40 promotor) were obtained from ATCC (ATCC no. CRL-1650) and grown in growth medium (DMEM without phenolred, 10% FCS, 2 mM L-glutamine, 100U penicillin and 100 μg streptomycin/ml) at 37° C. with 5% CO2. The cells were passaged twice a week by trypsination (0.25% trypsin, 1 mM EDTA in PBS) and were split 1:10. The medium was changed every second or third day. The cell line was regularly tested with the Mycoplasma PCR Primer Set (Stratagene) and found to be free of Mycoplasma. Tissue culture media, FCS, L-glutamine and penicilin and streptomycin are from Bribco BRL, Gaithersburg, Md., USA.
Transient Expression of COS-1 Cells
On day one COS-1 cells were seeded in 143 cm^2 petridish with a density of 2×10^4celler/cm^2 in growth medium. At day 2 the cells were co-transfected with 5 μg (total) of experimental plasmid DNA, expressing the FLAG-p38α and FLAG-MKK6(EE). The plasmids were introduced into the COS-1 cells in serum-free medium using DOTAP™ (Boehringer-Mannheim, Mannheim, Germany). Plasmid DNA was prepared and purified using the QIAGEN EndoToxin-free Maxiprep-500 kit (Hilden, Germany). Briefly, DNA and DOTAP™ were mixed for exactly 15 min. at 37° C. in the CO2 incubator. […]

Row | IC50 (IL-1β) [nM] | IC50 (TNF-α) [nM] | IC50 (PMN-superoxide) [nM] | IC50 (p38α MAP kinase) [µM] | SMILES
1 | 72 | 17 | 6.3 | 0.0933 | Cc1ccccc1Nc1ccc(C(=O)c2sccc2Cl)c(Cl)c1 [Compound 101, 4-(2-tolylamino)-2-chlorophenyl 3-chloro-2-thienyl ketone]
2 | 13 | 7.1 | 5 | – | Cc1ccccc1C(=O)c1ccc(Nc2ccccc2N)cc1Cl [Ref. comp., 4-(2-aminophenylamino)-2-chloro-2′-methylbenzophenone, reference compound]
